Key:
Italian ryegrass [1] = experiment: Test Example 5: herbicidal effect by foliage application, plastic box (Table 20, symbol K); assay type: in vivo, Italian ryegrass (Lolium multiflorum); settings: foliage application, 320 g/ha
Outline: (§1)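 Plants sown in sterilized diluvial soil and grown 14 days in a greenhouse at 25° C to 30° C, then sprayed on the foliage with the compound's emulsion diluted in water to a predetermined herbicide amount. Injury to weeds and crops scored three weeks after application on a visual rating scale.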

southern crabgrass [2] = experiment: Test Example 4: herbicidal effect by soil treatment (Table 19, symbol F); assay type: in vivo, southern crabgrass (Digitaria ciliaris)
Outline: (§2)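 Three weeks of greenhouse growth at 25° C. to 30° C. followed a uniform surface spray of water-diluted emulsion at a predetermined herbicide amount. Seeds had been sown beforehand under about 1.5 cm of sterilized diluvial soil. Grading followed criteria set out in an earlier test.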

windgrass [3] = experiment: Test Example 4: herbicidal effect by soil treatment (Table 19, symbol L); assay type: in vivo, windgrass (Apera spica-venti)
Outline: as §2

lambsquarters [4] = experiment: Test Example 5: herbicidal effect by foliage application, plastic box (Table 20, symbol O); assay type: in vivo, lambsquarters (Chenopodium album); settings: foliage application, 320 g/ha
Outline: as §1

rice flat sedge = experiment: Test Example 3: herbicidal effect by foliage application, Wagner pot (Table 18, symbol E); assay type: in vivo, rice flat sedge (Cyperus iria)
Outline: (§3)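 Plants were sown in alluvial soil held under 0.1–0.5 cm standing water and grown 14 days in a greenhouse at 25–30 °C. An emulsifiable formulation, water-diluted to the set dose, was then sprayed onto the foliage, and effects were scored three weeks later using previously defined criteria.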

persian speedwell [5] = experiment: Test Example 5: herbicidal effect by foliage application, plastic box (Table 20, symbol R); assay type: in vivo, Persian speedwell (Veronica persica); settings: foliage application, 320 g/ha
Outline: as §1

velvetleaf [6] = experiment: Test Example 5: herbicidal effect by foliage application, plastic box (Table 20, symbol M); assay type: in vivo, velvetleaf (Abutilon theophrasti); settings: foliage application, 320 g/ha
Outline: as §1

persian speedwell [7] = experiment: Test Example 4: herbicidal effect by soil treatment (Table 19, symbol R); assay type: in vivo, Persian speedwell (Veronica persica)
Outline: as §2

velvetleaf [8] = experiment: Test Example 4: herbicidal effect by soil treatment (Table 19, symbol M); assay type: in vivo, velvetleaf (Abutilon theophrasti)
Outline: as §2

lambsquarters [9] = experiment: Test Example 4: herbicidal effect by soil treatment (Table 19, symbol O); assay type: in vivo, lambsquarters (Chenopodium album)
Outline: as §2

green foxtail [10] = experiment: Test Example 5: herbicidal effect by foliage application, plastic box (Table 20, symbol G); assay type: in vivo, green foxtail (Setaria viridis); settings: foliage application, 320 g/ha
Outline: as §1

windgrass [11] = experiment: Test Example 5: herbicidal effect by foliage application, plastic box (Table 20, symbol L); assay type: in vivo, windgrass (Apera spica-venti); settings: foliage application, 320 g/ha
Outline: as §1

Chinese sprangletop = experiment: Test Example 3: herbicidal effect by foliage application, Wagner pot (Table 18, symbol D); assay type: in vivo, chinese sprangletop (Leptochloa chinensis)
Outline: as §3

Italian ryegrass [12] = experiment: Test Example 4: herbicidal effect by soil treatment (Table 19, symbol K); assay type: in vivo, Italian ryegrass (Lolium multiflorum)
Outline: as §2

southern crabgrass [13] = experiment: Test Example 5: herbicidal effect by foliage application, plastic box (Table 20, symbol F); assay type: in vivo, southern crabgrass (Digitaria ciliaris); settings: foliage application, 320 g/ha
Outline: as §1

chickweed = experiment: Test Example 4: herbicidal effect by soil treatment (Table 19, symbol P); assay type: in vivo, common chickweed (Stellaria media)
Outline: as §2

blackgrass [14] = experiment: Test Example 4: herbicidal effect by soil treatment (Table 19, symbol J); assay type: in vivo, blackgrass (Alopecurus myosuroides)
Outline: as §2

false cleavers = experiment: Test Example 4: herbicidal effect by soil treatment (Table 19, symbol Q); assay type: in vivo, false cleavers (Galium spurium)
Outline: as §2

green foxtail [15] = experiment: Test Example 4: herbicidal effect by soil treatment (Table 19, symbol G); assay type: in vivo, green foxtail (Setaria viridis)
Outline: as §2

blackgrass [16] = experiment: Test Example 5: herbicidal effect by foliage application, plastic box (Table 20, symbol J); assay type: in vivo, blackgrass (Alopecurus myosuroides); settings: foliage application, 320 g/ha
Outline: as §1

barnyard grass [17] = experiment: Test Example 4: herbicidal effect by soil treatment (Table 19, symbol H); assay type: in vivo, barnyard grass (Echinochloa crus-galli)
Outline: as §2

wild oat [18] = experiment: Test Example 4: herbicidal effect by soil treatment (Table 19, symbol I); assay type: in vivo, wild oat (Avena fatua)
Outline: as §2

barnyard grass [19] = experiment: Test Example 3: herbicidal effect by foliage application, Wagner pot (Table 18, symbol H); assay type: in vivo, barnyard grass (Echinochloa crus-galli)
Outline: as §3

wild oat [20] = experiment: Test Example 5: herbicidal effect by foliage application, plastic box (Table 20, symbol I); assay type: in vivo, wild oat (Avena fatua); settings: foliage application, 320 g/ha
Outline: as §1

barnyard grass [21] = experiment: Test Example 5: herbicidal effect by foliage application, plastic box (Table 20, symbol H); assay type: in vivo, barnyard grass (Echinochloa crus-galli); settings: foliage application, 320 g/ha
Outline: as §1

redroot pigweed = experiment: Test Example 4: herbicidal effect by soil treatment (Table 19, symbol N); assay type: in vivo, redroot pigweed (Amaranthus retroflexus)
Outline: as §2

[22] = amount of applied herbicide 320 g/ha

Cc1nn(C)c(=O)c(-c2c(-c3ccc(CSCC(F)(F)F)cc3)sc3ccccc23)c1O [1-249]
effect on Italian ryegrass (K) (Italian ryegrass [1]; 3 weeks after application): 4 (Herbicidal rate of 70% or more and less than 90%) | F: southern crabgrass, herbicidal effect rating (southern crabgrass [2]; AAH 320 g/ha): 0 (Herbicidal rate of 5% or less (almost no effect)) | L: windgrass, herbicidal effect rating (windgrass [3]; AAH 320 g/ha): 0 (Herbicidal rate of 5% or less (almost no effect)) | effect on lambsquarters (O) (lambsquarters [4]; 3 weeks after application): 5 (Herbicidal rate of 90% or more (almost completely withered)) | herbicidal effect on E (rice flat sedge), rating 0-5 (rice flat sedge; 320 g/ha): 3 (Herbicidal rate of 40% or more and less than 70%) | effect on persian speedwell (R) (persian speedwell [5]; 3 weeks after application): 5 (Herbicidal rate of 90% or more (almost completely withered)) | effect on velvetleaf (M) (velvetleaf [6]; 3 weeks after application): 5 (Herbicidal rate of 90% or more (almost completely withered)) | R: persian speedwell, herbicidal effect rating (persian speedwell [7]; AAH 320 g/ha): 4 (Herbicidal rate of 70% or more and less than 90%) | M: velvetleaf, herbicidal effect rating (velvetleaf [8]; AAH 320 g/ha): 0 (Herbicidal rate of 5% or less (almost no effect)) | O: lambsquarters, herbicidal effect rating (lambsquarters [9]; AAH 320 g/ha): 3 (Herbicidal rate of 40% or more and less than 70%) | effect on green foxtail (G) (green foxtail [10]; 3 weeks after application): 4 (Herbicidal rate of 70% or more and less than 90%) | effect on windgrass (L) (windgrass [11]; 3 weeks after application): 0 (Herbicidal rate of 5% or less (almost no effect)) | herbicidal effect on D (Chinese sprangletop), rating 0-5 (Chinese sprangletop; 320 g/ha): 3 (Herbicidal rate of 40% or more and less than 70%) | K: Italian ryegrass, herbicidal effect rating (Italian ryegrass [12]; AAH 320 g/ha): 3 (Herbicidal rate of 40% or more and less than 70%) | effect on southern crabgrass (F) (southern crabgrass [13]; 3 weeks after application): 4 (Herbicidal rate of 70% or more and less than 90%) | P: chickweed, herbicidal effect rating (chickweed; AAH 320 g/ha): 0 (Herbicidal rate of 5% or less (almost no effect)) | J: blackgrass, herbicidal effect rating (blackgrass [14]; AAH 320 g/ha): 0 (Herbicidal rate of 5% or less (almost no effect)) | Q: false cleavers, herbicidal effect rating (false cleavers; AAH 320 g/ha): 0 (Herbicidal rate of 5% or less (almost no effect)) | G: green foxtail, herbicidal effect rating (green foxtail [15]; AAH 320 g/ha): 0 (Herbicidal rate of 5% or less (almost no effect)) | effect on blackgrass (J) (blackgrass [16]; 3 weeks after application): 0 (Herbicidal rate of 5% or less (almost no effect)) | H: barnyard grass, herbicidal effect rating (barnyard grass [17]; AAH 320 g/ha): 0 (Herbicidal rate of 5% or less (almost no effect)) | I: wild oat, herbicidal effect rating (wild oat [18]; AAH 320 g/ha): 0 (Herbicidal rate of 5% or less (almost no effect)) | herbicidal effect on H (barnyard grass), rating 0-5 (barnyard grass [19]; 320 g/ha): 5 (Herbicidal rate of 90% or more (almost completely withered)) | effect on wild oat (I) (wild oat [20]; 3 weeks after application): 0 (Herbicidal rate of 5% or less (almost no effect)) | effect on barnyard grass (H) (barnyard grass [21]; 3 weeks after application): 4 (Herbicidal rate of 70% or more and less than 90%) | N: redroot pigweed, herbicidal effect rating (redroot pigweed; AAH 320 g/ha): 3 (Herbicidal rate of 40% or more and less than 70%)

CCSc1ccc(-c2oc3ccc(F)cc3c2-c2c(O)c(C)nn(C)c2=O)cc1 [9-039]
herbicidal effect on Italian ryegrass (K) (Italian ryegrass [1]; three weeks after application): 5 (Herbicidal rate of 90% or more (almost completely withered)) | F: southern crabgrass, herbicidal effect grade (southern crabgrass [2]; [22]): 4 (Herbicidal rate of 70% or more and less than 90%) | L: windgrass, herbicidal effect grade (windgrass [3]; [22]): 0 (Herbicidal rate of 5% or less (almost no effect)) | herbicidal effect on lambsquarters (O) (lambsquarters [4]; three weeks after application): 5 (Herbicidal rate of 90% or more (almost completely withered)) | Herbicidal effect on E (rice flat sedge), foliage application (rice flat sedge; [22]): 5 (Herbicidal rate of 90% or more (almost completely withered)) | herbicidal effect on persian speedwell (R) (persian speedwell [5]; three weeks after application): 5 (Herbicidal rate of 90% or more (almost completely withered)) | herbicidal effect on velvetleaf (M) (velvetleaf [6]; three weeks after application): 5 (Herbicidal rate of 90% or more (almost completely withered)) | R: persian speedwell, herbicidal effect grade (persian speedwell [7]; [22]): 5 (Herbicidal rate of 90% or more (almost completely withered)) | M: velvetleaf, herbicidal effect grade (velvetleaf [8]; [22]): 3 (Herbicidal rate of 40% or more and less than 70%) | O: lambsquarters, herbicidal effect grade (lambsquarters [9]; [22]): 4 (Herbicidal rate of 70% or more and less than 90%) | herbicidal effect on green foxtail (G) (green foxtail [10]; three weeks after application): 5 (Herbicidal rate of 90% or more (almost completely withered)) | herbicidal effect on windgrass (L) (windgrass [11]; three weeks after application): 5 (Herbicidal rate of 90% or more (almost completely withered)) | Herbicidal effect on D (Chinese sprangletop), foliage application (Chinese sprangletop; [22]): 1 (Herbicidal rate of 5% or more and less than 20%) | K: Italian ryegrass, herbicidal effect grade (Italian ryegrass [12]; [22]): 5 (Herbicidal rate of 90% or more (almost completely withered)) | herbicidal effect on southern crabgrass (F) (southern crabgrass [13]; three weeks after application): 5 (Herbicidal rate of 90% or more (almost completely withered)) | P: chickweed, herbicidal effect grade (chickweed; [22]): 3 (Herbicidal rate of 40% or more and less than 70%) | J: blackgrass, herbicidal effect grade (blackgrass [14]; [22]): 0 (Herbicidal rate of 5% or less (almost no effect)) | Q: false cleavers, herbicidal effect grade (false cleavers; [22]): 0 (Herbicidal rate of 5% or less (almost no effect)) | G: green foxtail, herbicidal effect grade (green foxtail [15]; [22]): 5 (Herbicidal rate of 90% or more (almost completely withered)) | herbicidal effect on blackgrass (J) (blackgrass [16]; three weeks after application): 4 (Herbicidal rate of 70% or more and less than 90%) | H: barnyard grass, herbicidal effect grade (barnyard grass [17]; [22]): 2 (Herbicidal rate of 20% or more and less than 40%) | I: wild oat, herbicidal effect grade (wild oat [18]; [22]): 0 (Herbicidal rate of 5% or less (almost no effect)) | Herbicidal effect on H (barnyard grass), foliage application (barnyard grass [19]; [22]): 5 (Herbicidal rate of 90% or more (almost completely withered)) | herbicidal effect on wild oat (I) (wild oat [20]; three weeks after application): 4 (Herbicidal rate of 70% or more and less than 90%) | herbicidal effect on barnyard grass (H) (barnyard grass [21]; three weeks after application): 3 (Herbicidal rate of 40% or more and less than 70%) | N: redroot pigweed, herbicidal effect grade (redroot pigweed; [22]): 5 (Herbicidal rate of 90% or more (almost completely withered))

Source: patent US20230085307A1, “PYRIDAZINONE COMPOUND AND HERBICIDE” (NISSAN CHEMICAL CORPORATION, priority 2019, published 2023)
